Experimental data taken from patent publication US20110218103A1, “Fluoroalkyl-substituted 2-amidobenzimidazoles” (BAYER CROPSCIENCE AG, priority 2010, published 2011).

Legend:
Assay type in all cases: in vivo
[1] = tested on: Brassica napus (BRSNS); assay: Drought stress test on crop plants, spray application in greenhouse, visual damage rating; details: 50 g/ha, mean of three results
Experimental: Seeds of monocotyledonous and dicotyledonous crop plants were placed in sandy loam in wood-fiber pots, covered with soil and cultivated in a greenhouse under good growth conditions. The test plants were treated at the early leaf stage (BBCH10-BBCH13). To ensure uniform water supply before commencement of stress, the potted plants were supplied with the maximum amount of water immediately beforehand by dam irrigation and, after application, transferred in plastic inserts in order to prevent subsequent, excessively rapid drying. The inventive compounds, formulated in the form of wettable powders (WP), wettable granules (WG), suspension concentrates (SC) or emulsion concentrates (EC), were sprayed onto the green parts of the plants as an aqueous suspension at an equivalent water application rate of 600 l/ha with addition of 0.2% wetting agent (agrotin). Substance application was followed immediately by stress treatment of the plants (cold or drought stress). For cold stress treatment, the plants were kept under the following controlled conditions: Drought stress was induced by gradual drying out under the following conditions: “day”: 14 hours with illumination at 26° C. “night”: 10 hours without illumination at 18° C. The duration of the respective stress phases was guided mainly by the state of the untreated, stressed control plants and thus varies from crop to crop. It was ended (by re-irrigating or transfer to a greenhouse with good growth conditions) as soon as irreversible damage is observed on the untreated, stressed control plants. In the case of dicotyledonous crops, for example oilseed rape and soya, the duration of the drought stress phase was between 3 and 5 days, in the case of monocotyledonous crops, for example wheat, barley or corn, between 6 and 10 days. The duration of the cold stress phase varied between 12 and 14 days. The end of the stress phase was followed by an approx. 5-7-day recovery phase, during which the plants were once again kept under good growth conditions in a greenhouse. In order to rule out any influence of the effects observed by any fungicidal action of the test compounds, it was additionally ensured that the tests proceed without fungal infection and without infection pressure. After the recovery phase had ended, the intensities of damage were rated visually compared to untreated, unstressed controls of the same age (in the case of drought stress) or the same growth stage (in the case of cold stress). The intensity of damage was first assessed as a percentage (100%=plants have died, 0%=like control plants). These values were then used to calculate the efficacy of the test compounds (=percentage reduction in the intensity of damage as a result of substance application) by the following formula: [formula] EF: efficacy (%) DVus: damage value of the untreated, stressed control DVts: damage value of the plants treated with test compound The tables below list mean values in each case from three results of the same test. Effects of selected compounds of the formula (I) under drought stress: BRSNS=Brassica napus

[2] = tested on: Zea mays (ZEAMX); assay: Cold stress test on crop plants, spray application in greenhouse, visual damage rating; details: 25 g/ha, mean of three results
Experimental: Seeds of monocotyledonous and dicotyledonous crop plants were placed in sandy loam in wood-fiber pots, covered with soil and cultivated in a greenhouse under good growth conditions. The test plants were treated at the early leaf stage (BBCH10-BBCH13). To ensure uniform water supply before commencement of stress, the potted plants were supplied with the maximum amount of water immediately beforehand by dam irrigation and, after application, transferred in plastic inserts in order to prevent subsequent, excessively rapid drying. The inventive compounds, formulated in the form of wettable powders (WP), wettable granules (WG), suspension concentrates (SC) or emulsion concentrates (EC), were sprayed onto the green parts of the plants as an aqueous suspension at an equivalent water application rate of 600 l/ha with addition of 0.2% wetting agent (agrotin). Substance application was followed immediately by stress treatment of the plants (cold or drought stress). For cold stress treatment, the plants were kept under the following controlled conditions: “day”: 12 hours with illumination at 8° C. “night”: 12 hours without illumination at 1° C. The duration of the respective stress phases was guided mainly by the state of the untreated, stressed control plants and thus varies from crop to crop. It was ended (by re-irrigating or transfer to a greenhouse with good growth conditions) as soon as irreversible damage is observed on the untreated, stressed control plants. In the case of dicotyledonous crops, for example oilseed rape and soya, the duration of the drought stress phase was between 3 and 5 days, in the case of monocotyledonous crops, for example wheat, barley or corn, between 6 and 10 days. The duration of the cold stress phase varied between 12 and 14 days. The end of the stress phase was followed by an approx. 5-7-day recovery phase, during which the plants were once again kept under good growth conditions in a greenhouse. […] The intensity of damage was first assessed as a percentage (100%=plants have died, 0%=like control plants). […]

[3] = tested on: Zea mays (ZEAMX); assay: Drought stress test on crop plants, spray application in greenhouse, visual damage rating; details: 25 g/ha, mean of three results
Experimental: Seeds of monocotyledonous and dicotyledonous crop plants were placed in sandy loam in wood-fiber pots, covered with soil and cultivated in a greenhouse under good growth conditions. The test plants were treated at the early leaf stage (BBCH10-BBCH13). To ensure uniform water supply before commencement of stress, the potted plants were supplied with the maximum amount of water immediately beforehand by dam irrigation and, after application, transferred in plastic inserts in order to prevent subsequent, excessively rapid drying. The inventive compounds, formulated in the form of wettable powders (WP), wettable granules (WG), suspension concentrates (SC) or emulsion concentrates (EC), were sprayed onto the green parts of the plants as an aqueous suspension at an equivalent water application rate of 600 l/ha with addition of 0.2% wetting agent (agrotin). Substance application was followed immediately by stress treatment of the plants (cold or drought stress). For cold stress treatment, the plants were kept under the following controlled conditions: Drought stress was induced by gradual drying out under the following conditions: “day”: 14 hours with illumination at 26° C. “night”: 10 hours without illumination at 18° C. The duration of the respective stress phases was guided mainly by the state of the untreated, stressed control plants and thus varies from crop to crop. It was ended (by re-irrigating or transfer to a greenhouse with good growth conditions) as soon as irreversible damage is observed on the untreated, stressed control plants. In the case of dicotyledonous crops, for example oilseed rape and soya, the duration of the drought stress phase was between 3 and 5 days, in the case of monocotyledonous crops, for example wheat, barley or corn, between 6 and 10 days. The duration of the cold stress phase varied between 12 and 14 days. The end of the stress phase was followed by an approx. 5-7-day recovery phase, during which the plants were once again kept under good growth conditions in a greenhouse. In order to rule out any influence of the effects observed by any fungicidal action of the test compounds, it was additionally ensured that the tests proceed without fungal infection and without infection pressure. After the recovery phase had ended, the intensities of damage were rated visually compared to untreated, unstressed controls of the same age (in the case of drought stress) or the same growth stage (in the case of cold stress). The intensity of damage was first assessed as a percentage (100%=plants have died, 0%=like control plants). These values were then used to calculate the efficacy of the test compounds (=percentage reduction in the intensity of damage as a result of substance application) by the following formula: [formula] EF: efficacy (%) DVus: damage value of the untreated, stressed control DVts: damage value of the plants treated with test compound The tables below list mean values in each case from three results of the same test. Effects of selected compounds of the formula (I) under drought stress: ZEAMX=Zea mays

NC(=O)c1cccc2[nH]c(C(F)(F)F)nc12 [1-14]
>5%: EF (BRSNS), efficacy = percentage reduction in the intensity of damage [1] | EF (ZEAMX), efficacy = percentage reduction in the intensity of damage [2] | EF (ZEAMX), efficacy = percentage reduction in the intensity of damage [3]
